Data from patent US20190365776A1, “THERAPEUTIC AGENT FOR OCULAR FUNDUS DISEASE” (KYUSHU UNIVERSITY, NATIONAL UNIVERSITY CORPORATION, priority 2013, published 2019).

How the values were obtained:
[1] = test system: mice OIR (Oxygen-Induced Retinopathy) model; assay: Mice OIR model, fluorescein fundus angiography; type: in vivo, C57BL/6JJcl mice; settings: 0.8% solution, ocular instillation three times a day, day 17 after birth
Excerpt: C57BL/6JJcl mice born on the same day were reared in a 75%-oxygen environment from day 7 after birth, and were then transferred to a normal indoor environment on day 12 after birth to start administration by ocular instillation. Test groups were a saline instillation group (control), a 0.4% compound 1 solution instillation group, a 0.8% compound 1 solution instillation group, and a 0.4% fasudil solution instillation group, and saline, the compound 1 solution, or the fasudil solution was administered by ocular instillation three times a day. On day 17 after birth, ischemic retinal areas (non-perfused areas) and neovascular areas were quantified for evaluation by flat-mounting or fluorescein fundus angiography. More specifically, 1 g/kg of pentobarbital (Nembutal) was administered intraperitoneally for euthanasia under deep anesthesia, and then both eyeballs were excised and fixed with 4% paraformaldehyde (PFA) at 37° C. for 1 hour, and the corneal limbus was circumferentially incised to remove the cornea and iris from the eyeball. […] Then, the image of the flat-mounted retina was taken with a fluorescence microscope (BZ-9000, KEYENCE Corp, Osaka, Japan), and the proportion of the non-perfused area to the entire retina and the proportion of the neovascular area to the entire retina were calculated by the following formulas in NIH image J software. […]

Kimba (trVEGF029) mice = assay: Kimba (trVEGF029) mice, fluorescein fundus angiography and optical coherence tomography; type: in vivo; settings: 0.8% solution, ocular instillation three times a day for 2 weeks
Experimental: The effectiveness of the compound 1 in Kimba (trVEGF029) mice known as mice transgenic for VEGF gene, which develop retinal neovascularization, was examined in the following manner.
Compound 1 solution prepared in the same manner as in Example 1: 0.8% solution (instillation volume: 20 μL)
Test animals: Kimba mice (available from Lions Eye Institute Ltd., 6 mice per group)
One-month-old Kimba mice born on the same day were given saline (control) or the 0.8% compound 1 solution by ocular instillation three times a day for 2 weeks, and were then subjected to fluorescein fundus angiography and optical coherence tomography under anesthesia for evaluation. More specifically, in fluorescein fundus angiography, each of the mice was first given tropicamide by ocular instillation to cause mydriasis and then anesthetized by intraperitoneal administration of 100 mg/kg of Ketalar and 10 mg/kg of Selactar, given 6 μL/g of a contrast agent for fluorescein fundus angiography by intraperitoneal injection, and subjected to fluorescein fundus angiography using Heidelberg Retina Angiograph (HRA, Heidelberg, Germany). […]

C[C@H]1CNCCCN1S(=O)(=O)c1cccc2cncc(F)c12 [compound 1, (S)-(−)-1-(4-fluoro-5-isoquinolinesulfonyl)-2-methyl-1,4-homopiperazine]
relative value of the neovascular area (saline instillation group = 100%) [1]: 41.6%
edema (fluorescein fundus angiography / optical coherence tomography images) (Kimba (trVEGF029) mice): suppression of edema is observed
average maximum retinal thickness (mean±standard error) (Kimba (trVEGF029) mice; optical coherence tomography, saline control 361.8±36.1): 256.7±35.7 μm
